Entries after “also recorded” stand apart in the source; their conditions may differ. Read-outs that look alike come from different tables or passages of the source.
Experiments:
rC100sub and rNOTCH1sub = experiment: Cell-free γ-secretase assay, rC100sub and rNOTCH1sub (Appendix Fig S1); assay type: biochemical
Procedure: Although not suited for detailed dose–response studies due to challenges in precise quantification of the cleavage products, we nevertheless conducted several studies to examine how different GSIs affect cleavage in the cell‐free assay. […] We also evaluated a previously reported Notch‐sparing GSI, Avagacestat (BMS‐708163) (Gillman et al, 2010; Albright et al, 2013) using this assay (Appendix Fig S1).
CHAPSO‐solubilized CHO cell membrane was prepared as described in previous report. 25 μg/ml of each substrate was incubated with the membrane (100 μg/ml total protein) in sodium citrate buffer (150 mM, pH 6.5, Roche Complete protease inhibitor added) for 2 h at 37°C. […] The reaction was terminated by placing tubes on ice until immunoprecipitation.
(§1) Immunoprecipitation and mass spectrometry of Aβ and Aβ‐like peptides in cell‐free assay or conditioned media were performed as previously described (Ran et al, 2014). Briefly, the peptides were immunoprecipitated using anti‐Aβ Ab5 antibody bound to sheep anti‐mouse IgG magnetic Dynabeads (Life Technologies) and eluted with 0.1% trifluoroacetic acid (TFA) in water. COOH‐terminal fragments (CTFs) were immunoprecipitated with anti‐FLAG M2 magnetic beads (Sigma). […] Samples were analyzed using a Bruker Microflex LRF‐MALDI‐TOF mass spectrometer.

cNOTCH1sub = experiment: Cell-based γ-secretase cleavage assay, cNOTCH1sub in H4 cells (Aβ-like peptide ELISA); set-up: species or system human; conditions: Aβ-like peptide in media, GSI overnight
Procedure: (§2) Using these cell‐based γ‐secretase cleavage assays, we systematically investigated the substrate inhibition profile of BMS‐906024, MK‐0752, PF‐308414, RO4929097, Semagacestat, and DAPT. We treated H4 cells stably expressing cNOTCH1‐4sub with 4 pM to 10 μM of GSIs (Fig 5A and Table 2) and measured the Aβ‐like peptide secreted into the media.
(§3) For the cell‐based assay, all substrates contain a human NOTCH4 signal peptide sequence ([…]), amyloid β peptide (Aβ1–25/K16A) epitope tag followed by the juxtamembrane region (JMD) of the given substrate and a FLAG tag ([…]) at the COOH‐terminal. K16A mutant was created to decrease potential α‐secretase cleavage. The cDNAs were generated by gene synthesis conducted by Genscript. A schematic representation of the substrates is provided in Fig 4A, and sequences of the cDNAs and the proteins are provided in Appendix Fig S6. For clarity, these substrates are referred to as cell‐based assay substrates (e.g., NOTCH1 is cNOTCH1sub). Substrate cDNAs were cloned into pCDNA3.1 (Invitrogen, Carlsbad, CA, USA) for expression in H4 cells (ATCC, Manassas, VA).
(§4) H4 cells were cultured in Opti‐mem media (Thermo‐Fisher) supplemented with Hyclone 6% fetal bovine serum (GE, Logan, Utah, USA) and 1% penicillin/streptomycin (Life Technologies, Grand Island, NY, USA). pCDNA3.1 plasmids containing the substrate cDNAs were transfected into H4 cells using FuGENE HD reagent (Madison, WI, USA). Stable cell lines were established using G418 selection. […] Cells and conditioned media were used for WB, IP, and ELISA.
(§5) Sandwich ELISAs used for Aβ detection were performed as previously described (Murphy et al, 1999; Ran et al, 2014). Briefly, Aβ and Aβ‐like peptides in conditioned media were captured with Ab5 antibody and detected with horseradish peroxidase labeled mAb 4G8 (Biolegend). Synthetic Aβ1‐40 was used as standard. All ELISAs were developed with TMB substrate (KPL, Gaithersburg, Maryland, USA). Bis‐Tris precast gels (Biorad, Hercules, CA, USA) were used for all SDS–PAGE. Monoclonal anti‐FLAG M2 antibody (Sigma) and Aβ1‐16 antibody 6E10 (Covance) were used for Western blotting at 1:1,000 dilution. Anti‐CD74 In‐1 antibody (BD Bioscience, San Jose, CA, USA) was used for A20 cell lysate Western blotting at dilution of 1:1,000. MDA‐MB‐231 cell extracts were prepared by lysing cells in RIPA buffer containing protease and phosphatase inhibitors. The lysates were kept on ice for 30 min and vortexed every 10 min, and then centrifuged at 4°C for 10 min at 1,000 g. The supernatants were collected, and protein concentrations were determined by Bradford Assay. Pan‐NOTCH1 antibody (C‐20) (Santa Cruz Biotechnology) and cleaved NOTCH1 (Val1744) antibody (Developmental Studies Hybridoma Bank) were used at 1:500 and 1:100 dilution in the test of endogenous NOTCH1 inhibition with β‐actin expression used as loading control. β‐actin antibody was used at 1:1,000 dilution (Sigma). Band intensities normalized for actin using densitometry analysis with ImageJ Software (NIH, USA).

cNOTCH2sub = cNOTCH2sub (Homo sapiens, UniProt P49768); experiment: Cell-based γ-secretase cleavage assay, cNOTCH2sub in H4 cells (Aβ-like peptide ELISA); conditions: rank among the six GSIs, number in brackets
Procedure: as §2, §3, §4, §5

cNOTCH3sub = experiment: Cell-based γ-secretase cleavage assay, cNOTCH3sub in H4 cells (Aβ-like peptide ELISA); set-up: species or system human
Procedure: as §2, §3, §4, §5

cNOTCH4sub = experiment: Cell-based γ-secretase cleavage assay, cNOTCH4sub in H4 cells (Aβ-like peptide ELISA); set-up: species or system human; conditions: Aβ-like peptide in media, GSI overnight
Procedure: as §2, §3, §4, §5

cAPPC100sub = experiment: Cell-based γ-secretase cleavage assay, cAPPC100sub stably overexpressing cells (Aβ ELISA)
Description: (§6) We next tested all GSIs on cAPPC100sub and full‐length APP stably overexpressing cells. […] The low‐dose potentiation of γ‐secretase cleavage was further mechanistically probed using in vitro assays with recombinant substrates and IP‐MS.
as §3, §4, §5

full‐length APP = experiment: Cell-based γ-secretase cleavage assay, full-length APP stably overexpressing cells (Aβ ELISA)
Procedure: as §6, §4, §5

cNOTCH1‐4sub = experiment: Average of cell-based IC50s on cNOTCH1-4sub in H4 cells; set-up: species or system human; conditions: read-out: Average IC50s of each GSI on cNOTCH1‐4sub
Procedure: as §2, §3, §4, §5

NOTCH1 = experiment: Endogenous NOTCH1 cleavage inhibition in MDA-MB-231 cells (NICD Western blot after EDTA activation); assay type: cell-based; conditions: MDA-MB-231, 100 nM to 12.5 μM, 1 h pretreatment then 5 mM EDTA 5 min
Procedure: (§7) To extend the study to a more physiological system, we assessed endogenous NOTCH1 cleavage inhibition using the triple‐negative breast cancer line MDA‐MB‐231 (Fig 6A). Full‐length blots are shown in source data for Fig 6. NOTCH1 cleavage was detected by Western blotting using the Cell Signaling neo‐epitope NICD antibody. […] The inhibition of endogenous APP in MDA‐MB‐231 cells was also tested by detecting accumulation of APP COOH‐terminal fragments (APP‐CTFs). […] Figure 6D summarized the APP‐CTF band intensities normalized for DMSO group. The original blots are available in source data for Fig 6.
Short‐term endogenous NOTCH1 cleavage inhibition was tested in the triple‐negative breast cancer cell lines MDA‐MB‐231 (ATCC, Manassas, VA). Cells were plated in 60 mm dishes and maintained as monolayer cultures in DMEM medium supplemented with 10% FBS, 1% penicillin/streptomycin, 1% L‐glutamine (Life Technologies), and incubated at 37°C in a humidified 5% CO2 incubator. After the cells reached ~75% confluency, cultures were pretreated with GSIs for 1 h in DMEM at 37°C in a 5% CO2 incubator. GSIs were tested at concentrations of 0, 0.1, 0.5, 2.5, and 12.5 μM. Then, EDTA (5 mM, Life Technologies) was added to the cell cultures to induce Notch activation for 5 min. Following incubation, cell extracts were prepared by lysing cells in RIPA buffer (Santa Cruz Biotechnology) containing protease and phosphatase inhibitors. Western blotting was performed using Cleaved NOTCH1 (Val1744) antibody (Cell Signaling) with β‐actin (Santa Cruz Biotechnology) as loading control. Band intensities were normalized for actin using ImageJ Software (NIH, USA).
as §5

APP = experiment: Endogenous APP-CTF accumulation in MDA-MB-231 cells (Western blot); assay type: cell-based
Procedure: as §7
Values are mean ± SD of three tests. • APP‐CTF Western blot of MDA‐MB‐231 cells treated with indicated concentration of GSIs for 16 h. • Band intensities of APP‐CTF with 0.1 μM GSIs were normalized for DMSO control group. Values are mean ± SD of three tests. Data information: Original blots are provided as source data. All band intensity data are derived from three independent experiments and are analyzed by one‐way ANOVA using GraphPad Prism6 software. All experiments were repeated three times.Source data are available online for this figure.

[1] = system: cNOTCH1‐4sub and cAPPC100sub; experiment: Substrate accumulation in H4 cells stably expressing cNOTCH1-4sub and cAPPC100sub (Western blot); assay type: cell-based, human; conditions: for substrate accumulation (Western blot), other GSIs tried beside DAPT: authors' response, concentration not given
Procedure: In order to enable us to more definitively characterize the effects of various GSIs on different substrates, we generated H4 cells stably expressing cNOTCH1‐4sub and cAPPC100sub (Fig 4A). Chimeric substrates were detected by WB using anti‐FLAG antibody (Fig 4B). Multiple CTFs are detectable as well as potential dimers for all substrates. Multiple NTF are also detectable using anti‐Aβ 6E10 antibody (Appendix Fig S2) for cNOTCH1, 3, and 4 substrates.
as §4
as §5, with “Pan‐NOTCH1 antibody (C‐20) (Santa Cruz Biotechnology) and cleaved NOTCH1 (Val1744) antibody (Developmental Studies Hybridoma Bank) were used at 1:500 and 1:100 dilution in the test of endogenous NOTCH1 inhibition with β‐actin expression used as loading control. β‐actin antibody was used at 1:1,000 dilution (Sigma). Band intensities normalized for actin using densitometry analysis with ImageJ Software (NIH, USA).” left out

Aβ40 = system: Aβ40; set-up: method as in ref Appendix Table S1 (Gavai et al, 2015; Dovey et al, 2001; Cook et al, 2010; Krop et al, 2012; Wei et al, 2010; Luistro et al, 2009; Mitani et al, 2012); conditions: ref Appendix Table S1 (Gavai et al, 2015; Dovey et al, 2001; Cook et al, 2010; Krop et al, 2012; Wei et al, 2010; Luistro et al, 2009; Mitani et al, 2012); read-out: Reported IC50s Aβ40; cited from earlier work
SPP = system: SPP; set-up: method as in Weihofen et al, 2003; conditions: concentration up to 100 μM; ref Weihofen et al, 2003; cited from earlier work
γ‐secretase = γ‐secretase (Homo sapiens, UniProt P49768); conditions: quoted in parentheses in the authors' response, no assay and reference not given; cited from earlier work
[2] = system: cNOTCH1‐4sub and cAPPC100sub; experiment: Secretion of Aβ-like peptides from cNOTCH1-4sub and cAPPC100sub H4 cells (ELISA, IP-MS); assay type: cell-based, human
Procedure: The secreted Aβ‐like peptides can be detected using Aβ ELISA method.
as §4
as §1, with “water.” for “water. COOH‐terminal fragments (CTFs) were immunoprecipitated with anti‐FLAG M2 magnetic beads (Sigma).”
Sandwich ELISAs used for Aβ detection were performed as previously described (Murphy et al, 1999; Ran et al, 2014). Briefly, Aβ and Aβ‐like peptides in conditioned media were captured with Ab5 antibody and detected with horseradish peroxidase labeled mAb 4G8 (Biolegend). […] The supernatants were collected, and protein concentrations were determined by Bradford Assay. […]

NC(=O)[C@@H](CCC(F)(F)F)N(Cc1ccc(-c2ncon2)cc1F)S(=O)(=O)c1ccc(Cl)cc1 [Avagacestat]
inhibition of APP versus Notch cleavage (rC100sub and rNOTCH1sub): inhibit APP and Notch cleavage equivalently

C[C@H](NC(=O)Cc1cc(F)cc(F)c1)C(=O)N[C@H](C(=O)OC(C)(C)C)c1ccccc1 [DAPT]
IC50 (cNOTCH1sub): 4.9 nM
rank order of inhibition of cNOTCH2sub (cNOTCH2sub): [6]
effect on cNOTCH3sub cleavage at low concentrations (cNOTCH3sub): potentiate
IC50 (cNOTCH3sub; Aβ-like peptide in media, GSI overnight, read-out: IC50 cNOTCH3sub): 624 nM
IC50 (cNOTCH3sub; value in parentheses, read-out: IC50 cNOTCH3sub, from curves excluding the Aβ level > 120%): 265 nM
IC50 (cNOTCH4sub): 51.5 nM
IC50 (cAPPC100sub; stably overexpressing cells, Aβ ELISA, read-out: IC50 cC100sub): 360 nM
IC50 (cAPPC100sub; value in parentheses, read-out: IC50 cC100sub, from curves excluding the Aβ level > 120%): 212 nM
low-dose potentiation of cleavage, APP (full‐length APP; full-length APP overexpressing cells): low‐dose potentiation of cleavage was observed
IC50 (full‐length APP; full-length APP stably overexpressing cells, Aβ ELISA): 32.7 nM
IC50 (cNOTCH1‐4sub): 191 nM
NICD levels (NOTCH1): did not suppress NICD levels to baseline levels at any concentrations
APP CTF level / accumulation at 100 nM (APP; MDA-MB-231 (231 cells), 100 nM, triplicate): hard to see; also recorded: did not significantly increase CTF level
concentration from which APP‐CTF process is inhibited (APP; MDA-MB-231, 16 h): ≥ 500 nM
substrate accumulation (Western blot) ([1]; 1 μM treatment, H4 cells): did not result in significant substrate accumulation except for cAPPC100sub
IC50 (Aβ40): 20 nM
effect on SPP activity (SPP): no effect

CC(C)C[C@H](NC(=O)[C@H](Cc1ccccc1)C[C@@H](O)[C@H](Cc1ccccc1)NC(=O)OC(C)(C)C)C(=O)N[C@@H](Cc1ccccc1)C(N)=O [L685458]
substrate accumulation (Western blot), other GSIs tried beside DAPT [1]: only cAPPC100 show some accumulation
IC50 (γ‐secretase): 17 nM

C[C@H](NC(=O)[C@@H](O)c1cc(F)cc(F)c1)C(=O)N[C@@H]1C(=O)N(C)c2ccccc2-c2ccccc21 [LY411575, N2‐[(2S)‐2‐(3,5‐difluorophenyl)‐2‐hydroxyethanoyl]‐N1‐[(7S)‐5‐methyl‐6‐oxo ‐6,7‐dihydro‐5H‐dibenzo[b,d]azepin‐7‐yl]‐L‐alaninamide]
substrate accumulation (Western blot), other GSIs tried beside DAPT [1]: only cAPPC100 show some accumulation
Aβ-like peptides in culture media (IP-MS) ([2]; 1 μM): abolished all production
secretion of Aβ-like peptides (ELISA) ([2]; 1 μM applied to cell cultures): almost completely inhibited

From paper PMC5494507, “γ‐Secretase inhibitors in cancer clinical trials are pharmacologically and functionally distinct” (EMBO Molecular Medicine, 2017)
